# According to patent US3940382A, “1,2'-Di-N-substituted kanamycin B compounds” (Zaidan Hojin Biseibutsu Kagaku Kenkyu Kai, priority 1973, dated 1976):
# Legend:
# drug-resistant bacteria = conditions: cited from earlier work
# Salmonella typhosa T-63 = test: MIC, serial dilution on nutrient agar; format: cell-based; conditions: Salmonella enterica, 18 h, read-out: Minimum Inhibitory Concentrations
# Escherichia coli W677 = test: MIC, serial dilution on nutrient agar; format: cell-based; conditions: Escherichia coli W677; nutrient agar, 37°C, 18 hours; read-out: Minimum Inhibitory Concentrations
# [1] = system: Pseudomonas aeruginosa 99; test: MIC, serial dilution on nutrient agar; format: cell-based; conditions: Pseudomonas aeruginosa 99; nutrient agar, 37°C, 18 hours; read-out: Minimum Inhibitory Concentrations
# Escherichia coli NIHJ = test: MIC, serial dilution on nutrient agar; format: cell-based; conditions: Escherichia coli, 18 h, read-out: Minimum Inhibitory Concentrations
# Escherichia coli K-12 = test: MIC, serial dilution on nutrient agar; format: cell-based; conditions: Escherichia coli, K12, 18 h, read-out: Minimum Inhibitory Concentrations
# [2] = system: Staphylococcus aureus FDA 209P; test: MIC, serial dilution on nutrient agar; format: cell-based; conditions: Staphylococcus aureus, FDA209P, 18 h, read-out: Minimum Inhibitory Concentrations
# [3] = system: Pseudomonas aeruginosa No.12; test: MIC, serial dilution on nutrient agar; format: cell-based; conditions: Pseudomonas aeruginosa No.12; nutrient agar, 37°C, 18 hours; read-out: Minimum Inhibitory Concentrations
# [4] = system: Bacillus subtilis PCI 219; test: MIC, serial dilution on nutrient agar; format: cell-based; conditions: PCI219; Bacillus subtilis PCI 219; nutrient agar, 37°C, 18 hours; read-out: Minimum Inhibitory Concentrations
# [5] = system: Mycobacterium smegmatis ATCC 607; test: MIC, serial dilution on nutrient agar; format: cell-based; conditions: Mycolicibacterium smegmatis, ATCC607; Mycobacterium smegmatis ATCC 607; nutrient agar, 37°C, 18 hours; read-out: Minimum Inhibitory Concentrations
# [6] = system: Pseudomonas aeruginosa TI-13; test: MIC, serial dilution on nutrient agar; format: cell-based; conditions: TI13; Pseudomonas aeruginosa TI-13; nutrient agar, 37°C, 18 hours; read-out: Minimum Inhibitory Concentrations
# [7] = system: Escherichia coli LA290 R56; test: MIC, serial dilution on nutrient agar; format: cell-based; conditions: LA290R56, 18 h, read-out: Minimum Inhibitory Concentrations
# Proteus vulgaris OX 19 = test: MIC, serial dilution on nutrient agar; format: cell-based; conditions: Proteus vulgaris, OX19, 18 h, read-out: Minimum Inhibitory Concentrations
# [8] = system: Shigella dysenteriae JS 11910; test: MIC, serial dilution on nutrient agar; format: cell-based; conditions: JS11910, 18 h, read-out: Minimum Inhibitory Concentrations
# [9] = system: Klebsiella pneumoniae PCI 602; test: MIC, serial dilution on nutrient agar; format: cell-based; conditions: Klebsiella pneumoniae, PCI602, 18 h, read-out: Minimum Inhibitory Concentrations
# [10] = system: Staphylococcus aureus Smith; test: MIC, serial dilution on nutrient agar; format: cell-based; conditions: Staphylococcus aureus Smith; nutrient agar, 37°C, 18 hours; read-out: Minimum Inhibitory Concentrations
# [11] = system: Corynebacterium bovis 1810; test: MIC, serial dilution on nutrient agar; format: cell-based; conditions: Corynebacterium bovis, 1810, 18 h, read-out: Minimum Inhibitory Concentrations
# [12] = system: Bacillus cereus ATCC 10702; test: MIC, serial dilution on nutrient agar; format: cell-based; conditions: Bacillus cereus, ATCC10702, 18 h, read-out: Minimum Inhibitory Concentrations
# [13] = system: Escherichia coli JR66/W677; test: MIC, serial dilution on nutrient agar; format: cell-based; conditions: Escherichia coli, JR66/W677, 18 h, read-out: Minimum Inhibitory Concentrations
# [14] = system: Pseudomonas aeruginosa GN315; test: MIC, serial dilution on nutrient agar; format: cell-based; conditions: Pseudomonas aeruginosa GN315; nutrient agar, 37°C, 18 hours; read-out: Minimum Inhibitory Concentrations
# Sarcina lutea PCI 1001 = test: MIC, serial dilution on nutrient agar; format: cell-based; conditions: Micrococcus luteus, PCI1001, 18 h, read-out: Minimum Inhibitory Concentrations
# [15] = system: Pseudomonas aeruginosa A3; test: MIC, serial dilution on nutrient agar; format: cell-based; conditions: Pseudomonas aeruginosa, A3, 18 h, read-out: Minimum Inhibitory Concentrations
# [16] = system: Salmonella enteritidis 1891; test: MIC, serial dilution on nutrient agar; format: cell-based; conditions: Salmonella enterica, ENTERITIDIS, 18 h, read-out: Minimum Inhibitory Concentrations
# [17] = system: Bacillus subtilis NRRL B-558; test: MIC, serial dilution on nutrient agar; format: cell-based; conditions: NRRLB558; Bacillus subtilis NRRL B-558; nutrient agar, 37°C, 18 hours; read-out: Minimum Inhibitory Concentrations
# Shigella sonnei JS 11746 = test: MIC, serial dilution on nutrient agar; format: cell-based; conditions: JS11746, 37°C, 18 hours, read-out: Minimum Inhibitory Concentrations
# Experimental: (§1) The minimum inhibitory concentrations (mcg/ml) of 1,2'-di-N-[(S)-4-amino-2-hydroxybutyryl]-kanamycin B (abbreviated as 1,2'-AHB-KMB), 1,2'-di-N-[(S)-4-amino-2-hydroxybutyryl]-3',4'-dideoxykanamycin B (abbreviated as 1,2'-AHB-DKB), 1,2'-di-N-DL-isoseryl-3',4'-dideoxykanamycin B (abbreviated as 1,2'-IS-DKB) and 1,2'-di-N-DL-isoseryl-kanamycin B (abbreviated as 1,2'-IS-KMB) against various microorganisms were determined according to serial dilution method using nutrient agar medium at 37°C, the estimation being effected after 18 hours incubation. For comparison, the minimum inhibitory concentrations of kanamycin B (abbreviated as KMB) and 3',4'-dideoxykanamycin B (abbreviated as DKB) were also determined in the same manner as mentioned above.
# [18] = system: Escherichia coli K-12 ML 1630; test: MIC, serial dilution on nutrient agar; format: cell-based; conditions: K12ML1630, 37°C, 18 hours, read-out: Minimum Inhibitory Concentrations
# Experimental: as §1
# [19] = system: Shigella flexneri 4b JS 11811; test: MIC, serial dilution on nutrient agar; format: cell-based; conditions: 4BJS11811, 37°C, 18 hours, read-out: Minimum Inhibitory Concentrations
# Experimental: as §1
# [20] = system: Escherichia coli K-12 ML 1410 R81; test: MIC, serial dilution on nutrient agar; format: cell-based; conditions: 18 h, read-out: Minimum Inhibitory Concentrations
# [21] = system: Staphylococcus aureus Terejima; test: MIC, serial dilution on nutrient agar; format: cell-based; conditions: Staphylococcus aureus Terejima; nutrient agar, 37°C, 18 hours; read-out: Minimum Inhibitory Concentrations
# Bacillus anthracis = test: microbe, parasite or virus in culture; format: cell-based; conditions: 18 h, read-out: Minimum Inhibitory Concentrations
# [22] = system: Escherichia coli LA290 R55; test: MIC, serial dilution on nutrient agar; format: cell-based; conditions: LA290R55, 18 h, read-out: Minimum Inhibitory Concentrations
# [23] = system: Escherichia coli LA290 R64; test: MIC, serial dilution on nutrient agar; format: cell-based; conditions: LA290R64, 18 h, read-out: Minimum Inhibitory Concentrations
# [24] = system: Escherichia coli K-12 ML 1629; test: MIC, serial dilution on nutrient agar; format: cell-based; conditions: Escherichia coli, K12ML1629, 18 h, read-out: Minimum Inhibitory Concentrations
# [25] = system: Escherichia coli K-12 ML 1410; test: MIC, serial dilution on nutrient agar; format: cell-based; conditions: Escherichia coli, K12ML1410, 18 h, read-out: Minimum Inhibitory Concentrations
# [26] = system: Klebsiella pneumoniae 22 -3038; test: MIC, serial dilution on nutrient agar; format: cell-based; conditions: Klebsiella pneumoniae, 223038, 18 h, read-out: Minimum Inhibitory Concentrations
compound,measurement,setting,value
CNC[C@H]1O[C@H](O[C@H]2[C@H](O)[C@@H](O[C@H]3O[C@H](CO)[C@@H](O)[C@H](N)[C@H]3O)[C@H](N)C[C@@H]2N)[C@H](N)C[C@@H]1O [3'-deoxy-6'-N-methylkanamycin B],antibacterial activity against the drug-resistant bacteria,drug-resistant bacteria,improved antibacterial activity
"NC[C@@H]1CC[C@@H](N)[C@@H](O[C@H]2[C@H](O[C@@H]3O[C@H](CO)[C@@H](O)[C@H]3O)[C@@H](O)[C@H](N)C[C@@H]2N)O1 [3',4'-dideoxyribostamycin]",antibacterial activity against the drug-resistant bacteria,drug-resistant bacteria,improved antibacterial activity
"NCC[C@H](O)C(=O)N[C@H]1[C@@H](O[C@H]2[C@H](O)[C@@H](O[C@H]3O[C@H](CO)[C@@H](O)[C@H](N)[C@H]3O)[C@H](NC(=O)[C@@H](O)CCN)C[C@@H]2N)O[C@H](CN)[C@@H](O)[C@@H]1O [1,2'-AHB-KMB, 1,2'-di-N-[(S)-4-amino-2-hydroxybutyryl]-kanamycin B]",MIC,Salmonella typhosa T-63,3.13 µg/mL
same,MIC,Escherichia coli W677,1.56 µg/mL
same,MIC,[1],50 µg/mL
same,MIC,Escherichia coli NIHJ,6.25 µg/mL
same,MIC,Escherichia coli K-12,3.13 µg/mL
same,MIC,[2],6.25 µg/mL
same,MIC,[3],25 µg/mL
same,MIC,[4],< 0.2 µg/mL
same,MIC,[5],0.78 µg/mL
same,MIC,[6],25 µg/mL
same,MIC,[7],1.56 µg/mL
same,MIC,Proteus vulgaris OX 19,3.13 µg/mL
same,MIC,[8],12.5 µg/mL
same,MIC,[9],3.13 µg/mL
same,MIC,[10],0.39 µg/mL
same,MIC,[11],3.13 µg/mL
same,MIC,[12],12.5 µg/mL
same,MIC,[13],6.25 µg/mL
same,MIC,[14],> 100 µg/mL
same,MIC,Sarcina lutea PCI 1001,6.25 µg/mL
same,MIC,[15],12.5 µg/mL
same,MIC,[16],3.13 µg/mL
same,MIC,[17],0.78 µg/mL
same,MIC,Shigella sonnei JS 11746,6.25 µg/mL
same,MIC,[18],3.13 µg/mL
same,MIC,[19],12.5 µg/mL
same,MIC,[20],6.25 µg/mL
same,MIC,[21],< 0.2 µg/mL
same,MIC,Bacillus anthracis,0.39 µg/mL
same,MIC,[22],3.13 µg/mL
same,MIC,[23],1.56 µg/mL
same,MIC,[24],3.13 µg/mL
same,MIC,[25],3.13 µg/mL
same,MIC,[26],3.13 µg/mL
NC[C@H]1O[C@H](O[C@H]2[C@H](O)[C@@H](O)[C@H](N)C[C@@H]2N)[C@H](N)C[C@@H]1O [3'-deoxyneamine],antibacterial activity against the drug-resistant bacteria,drug-resistant bacteria,improved antibacterial activity
